Experimental data: patent US20220202912A1, “Polypeptides in Preparation of Drugs for Treatment or Prevention of Rheumatoid Arthritis” (priority 2011, published 2022)
Where no end group is shown, it is not given here.

Legend:
[1] = test system: tumor in BALB/c nude mice; test: in vivo pharmacodynamics (antitumor) of PEG-modified HM-3 in BALB/c nude mice
From the text: Four different types of mPEG-ALD and mPEG-SC with different molecular weights are selected to modify the polypeptide […](named HM-3), i.e., mPEG-ALD5k, mPEG-ALD10k, mPEG-SC10k, mPEG-SC20k, and modification reaction conditions are explored and optimized.

CIA mouse models = test: collagen-induced arthritis (CIA) mouse models; assay type: in vivo, DBA/1 mice; details: for clinical scoring / swelling of joints / swelling of paws: 5 times
TLR-4 = test: Western blot of TLR-4 protein in LPS-induced rat synovial cells; assay type: cell-based
Protocol: 3.1 U937 cells are added to a 6-well plate (1.5×10^5 cells/mL), PMA (25 ng/mL) is used for induction for 48 h, and the cells adhere and differentiate into macrophages. Positive drug Adalimumab (25 μg/mL, 50 μg/mL, 100 μg/mL, 200 μg/mL, 400 μg/mL), Avastin (25 μg/mL, 50 μg/mL) are added, the final concentrations of mPEG-SC20k-HM-3 are 2.25, 4.5, 9.0, 13.5, 18.0, 36 μmol/L, and isovolumetric PBS is added to the blank group and the model group. The cells are incubated in a CO2 incubator at 37° C. for 24 or 48 h. Rat synovial cells are induced with LPS for 24 h and then mPEG-SC20k-HM-3 is administrated to final concentrations of 2.25, 4.5, 9.0, 13.5, 18.0 μmol/L, and the cells are incubated in a CO2 incubator at 37° C. for 48 h.
3.3 A protein extract solution is added at 20 μL/1×10^5 cells, and the cells are pipetted and dispersed, and stand at 4° C. for 30 min to lyse the cells.
3.4 1/4 volume of 5×protein loading buffer is added, and boiling water bath is performed for 5-10 min.
3.5 20 μL of protein sample is taken and 10% SDS-PAGE electrophoresis is performed.
3.6 The protein on the gel is transferred to the PVDF membrane by using a wetting transfer method with a constant current of 100 mA for 1-2.5 h.
3.7 The PVDF membrane is blocked with a blocking solution at room temperature for 2 h.
3.8 The membrane is washed for 3 times with PBST, 5 min each time. […]

[2] = high dose 40 mg/kg once the other day
[3] = low dose 10 mg/kg once the other day
[4] = medium dose 20 mg/kg once the other day

For “mPEG-SC20k-Ile-Val-Arg-Arg-Ala-Asp-Arg-Ala-Ala-Val-Pro-Gly-Gly-Gly-Gly-Arg-Gly-Asp ({mPEG‑SC 20k}-IVRRADRAAVPGGGGRGD) [polypeptide III, No. 3]”, the “antitumor effect in vivo” value ([1]; BALB/c nude mice) was 50.23%, the “toxicity at an effective dose in vivo” value ([1]; body weight of nude mice basically stable) was “very low toxicity or no toxicity” and the “elimination half life in vivo” value ([1]; compared with HM-3) was “greatly improved”. For the same substance, the clinical scoring (CIA mouse models; [2]) was 2.00 ± 2.37, the swelling of joints (CIA mouse models; [2]) was 0.07 mm and the swelling of paws (CIA mouse models; [2]) was 0.14 ± 0.42 mm. For the same substance, the clinical scoring (CIA mouse models; [3]) was 4.83 ± 2.99, the swelling of joints (CIA mouse models; [3]) was 0.23 mm and the swelling of paws (CIA mouse models; [3]) was 0.37 ± 0.35 mm. For the same substance, the clinical scoring (CIA mouse models; [4]) was 6.33 ± 4.23, the swelling of joints (CIA mouse models; [4]) was 0.12 mm and the swelling of paws (CIA mouse models; [4]) was 0.34 ± 0.42 mm. For the same substance, the “therapeutic effect on collagen-induced arthritis in mice (conclusion)” value (CIA mouse models; mouse, in vivo) was “CONCLUSION: polypeptide III has therapeutic effect on collagen-induced arthritis in mice”, the “dose with the best inhibitory effect on the expression of TLR-4 protein” value (TLR-4) was 13.5 µM and the “expression of TLR-4 protein in rat synovial cells” value (TLR-4; with the increase of dosage) was “down-regulation”.
